How the values were obtained:
CLL cells [1] = experiment: ADCC, 4-hour 51Cr-release assay; assay type: cell-based, human; conditions: using alemtuzumab, data not shown
Experimental: For ADCC experiments, CD56^+ and CD19^+ cells were negatively purified from whole blood obtained from either healthy volunteers or CLL subjects by magnetic-activated cell sorting according to the manufacturer's recommendations (MiniMACS; Miltenyi Biotec, Auburn, Calif.). The purity of enriched populations was always greater than 95% of the total yield as detected by CD19 and CD3 staining.
ADCC activity was determined by standard 4-hour ^51Cr-release assay. ^51Cr-labeled target cells (10^5 CLL cells/mL) were incubated with media alone or in the presence of various antibodies (10 μg/mL) at 37° C. for 30 minutes. Unbound antibody was washed off and the cells plated at 10^4 cells/well. Effector cells (natural killer [NK] cells from healthy donors or CLL subjects) were then added to the plates at indicated effector-to-target (E:T) ratios. After a 4-hour incubation, supernatants were removed and measured using a gamma counter. The percentage of specific cell lysis was determined by the equation: % lysis=100×(ER−SR)/(MR−SR), where ER, SR, and MR represent experimental, spontaneous, and maximum release, respectively. Data were normalized to the untreated control.

CLL cells [2] = experiment: Cytotoxicity in presence of cross-linking (annexin V/PI); assay type: cell-based, human; conditions: for cell death (antibody-mediated apoptosis in the presence of cross-linking): rituximab 10 μg/mL + 50 μg/mL anti-Fc
Experimental: Cells (10^6 cells/mL) were treated with commercially purchased alemtuzumab (anti-CD52; Ilex Pharmaceuticals, San Antonio, Tex.), rituximab (anti-CD20; Genentech, San Francisco, Calif.), or trastuzumab (anti-HER2; Genentech) at a concentration of 10 μg/mL. Goat antihuman IgG cross-linker (Fc specific; Jackson ImmunoResearch Laboratories, West Grove, Pa.) was added to the cell suspension 5 minutes after adding the primary antibodies at a concentration of 50 μg/mL.
In addition, samples with no treatment or crosslinker alone were collected at matched time points. Apoptosis of cells at 24 and 48 hours after treatment was measured by annexin V-fluorescein isothiocyanate/propidium iodide (PI) flow cytometry analysis according to the supplier's instructions (BD Biosciences).
Cytotoxicity results were expressed as percentage of total positive cells over untreated control [% positive cells=(% annexin^+ and/or PI^+ cells of treatment group)−(% annexin^+ and/or PI^+ cells of untreated control)].

Substance	change in ADCC, lenalidomide versus untreated cells (CLL cells [1])	change in alemtuzumab-mediated apoptosis with lenalidomide treatment (CLL cells [2]; lenalidomide 48 hours, cross-linking, same conditions)	cell death (antibody-mediated apoptosis in the presence of cross-linking) (CLL cells [2]; lenalidomide-treated CLL cells (48 hours), N=10, P<0.017)	cell death (antibody-mediated apoptosis in the presence of cross-linking) (CLL cells [2]; vehicle-treated CLL cells (48 hours), N=10)
alemtuzumab: anti-CD52 antibody; Ilex Pharmaceuticals	no significant change	No significant change		
rituximab: anti-CD20 antibody; Genentech			11% ±8%	25% ±11%

— patent publication US20110280913A1, “Methods and Compositions for Delivering Therapeutic Agents in the Treatment of B-Cell Related Disorders” (THE OHIO STATE UNIVERSITY, priority 2008, published 2011)
